pEC50: −log10 of the molar value. Like-named read-outs stand apart in the source and are kept apart here.
Columns and labels:
C666-1 cells [1] = experiment: C666-1 cell viability, EC50 from 8-point dilution (Resazurin); assay type: cell-based; settings: 100-0.78 μmol/L, read-out: EC50 Quantitation
Procedure: In order to assess the effect of the EBNA1 inhibitor at the cellular level, the cytotoxicity assay was performed. The EBNA1 inhibitor selectively killed EBV-positive cell lines ([…]-1 cells), but had no toxicity to EBV-negative cell lines (HONE1 cells and HK1 cells). In the test, 100 μL different cell lines were inoculated in a transparent 96-well plate, each well containing 5×10^3 […]-1 cells. After the cells were cultured in an incubator with 5% carbon dioxide at 37° C. for 24 hours, 10 μL compound at a concentration range from 1 mmol/L to 7.8 μmol/L was added into each well (8 points, 2-fold dilution, the final concentration was 100-0.78 μmol/L), and treated in the incubator with carbon dioxide at 37° C. for 72 hours. The cell viability was assessed using a redox indicator Resazurin. Specifically, 10 μL Resazurin at a concentration of 600 μmol/L was added into each well, and incubated at 37° C. for 3 hours, and a Tecan microplate reader was used to detect the fluorescence signal at an excitation wavelength of 560 nm and an emission wavelength of 590 nm. A software was used to fit the inhibition curve and calculate the concentration for 50% of maximal effect (EC50). The selectivity of compound activity was assessed by comparing the EC50 of EBV-positive and EBV-negative cell lines.

C666-1 cells [2] = experiment: C666-1 cell viability single concentration (50 μM) inhibition rate (Resazurin); assay type: cell-based; settings: Homo sapiens, C6661, 72 h, C666-1 cells
Outline: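 EBV-positive C666-1 cells (5×10^3/well), pre-cultured 24 h, were exposed to compound at 50 μmol/L final for 72 h at 37° C, 5% CO2, in duplicate. Viability by resazurin (3 h, ex 560/em 590 nm); inhibition rate computed relative to DMSO control and medium-only blank.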

[3] = 50 μM compound, 72 hours, read-out: C666-1 cell viability single concentration (50 μM) inhibition rate, Ratio* (Inh %)
[4] = single concentration, read-out: Inhibition Rate (Inh %)

Row | Structure (SMILES) | pEC50 (C666-1 cells [1]; Homo sapiens, C6661, 72 h) | inhibition at 50 µM (C666-1 cells [2]; [3]) [%] | inhibition at 50 µM (C666-1 cells [2]; [4]) [%] | pEC50 (C666-1 cells [1]; 72 hours)
1 | COC(=O)c1cccc(N2CC(Oc3ccc(COC(=O)OC4CCOCC4)cc3)C2)c1-n1cccc1 [Example 234, Methyl 3-(3-(4-(((((tetrahydro-2H-pyran-4-yl)oxy)carbonyl)oxy)methyl)phenoxy)azetidin-1-yl)-2-(1H-pyrrol-1-yl)benzoate] | > 4.30 | > 50 | > 50 | 
2 | COC(=O)c1cccc(N2CC(Oc3ccc(C(=O)Nc4ccccc4)cc3)C2)c1-n1cccc1 [Example 263, Methyl 3-(3-(4-(phenylcarbamoyl)phenoxy)azetidin-1-yl)-2-(1H-pyrrol-1-yl)benzoate] | < 4.00 | 10 to 30 | 10 to 30 | 
3 | CCNC(=O)c1ccc(OC2CN(c3cccc(C(=O)O)c3-n3cccc3)C2)cc1 [Example 264, 3-(3-(4-(ethylcarbamoyl)phenoxy)azetidin-1-yl)-2-(1H-pyrrol-1-yl)benzoic acid] | < 4.00 | < 10 | < 10 | 
4 | O=C(O)c1cccc(N2CC(Oc3ccc(C(=O)N4CCOCC4)cc3)C2)c1-n1cccc1 [Example 266, 3-(3-(4-(morpholinyl-4-carbonyl)phenoxy)azetidin-1-yl)-2-(1H-pyrrol-1-yl)benzoic acid] | < 4.00 | < 10 | < 10 | 
5 | O=C(O)c1cccc(N2CC(Oc3ccc(Oc4ccc(C(F)(F)F)cc4)cc3)C2)c1-n1cccc1 [Example 292, 3-(3-(4-(4-(trifluoromethyl)phenoxy)phenoxy)azetidin-1-yl)2-(1H-pyrrol-1-yl)benzoic acid] | > 4.30 | > 50 | > 50 | 
6 | O=C(Nc1ccccc1)c1ccc(OC2CN(c3cccc(C(=O)O)c3-n3cccc3)C2)cc1 [Example 302, 3-(3-(4-(phenylcarbamoyl)phenoxy)azetidin-1-yl)-2-(1H-pyrrol-1-yl)benzoic acid] | < 4.00 | 10 to 30 | 10 to 30 | 
7 | COC(=O)c1cccc(C#CN(Cc2ccccc2)S(C)(=O)=O)c1-n1cccc1 [Example 381, Methyl 3-((N-benzylmethylsulfonamido)ethynyl)-2-(1H-pyrrol-1-yl)benzoate] | < 4.00 | 30 to 50 | 30 to 50 | 
8 | COC(=O)c1cccc(C#CN(C)S(=O)(=O)c2ccc(C)cc2)c1-n1cccc1 [Example 383] | > 4.30 | 10 to 30 |  | < 4.00
